Data published in ChEMBL document CHEMBL1221322, “Design, synthesis, and biological evaluation of new monoamine reuptake inhibitors with potential therapeutic utility in depression and pain” (Bioorg Med Chem Lett, 2010).

Experiments:
[1] = in vitro; details: human, Caco-2
[2] = physchem; details: octanol/water
[3] = in vitro; details: human, Caco-2; remark: listed apart in the source
[4] = Volume of distribution at steady state in rat; type: ADME, organism-based; details: in vivo, read-out: Vdss
[5] = Oral bioavailability in rat; type: ADME, organism-based; details: in vivo

CCCC1(C(=O)c2ccc3[nH]ncc3c2)CCCN1 (stereo not drawn)
Papp B→A [1]: 16 ×10⁻⁶ cm/s
logD [2]: 1
Papp A→B [3]: 29 ×10⁻⁶ cm/s

CC(C)CC1(C(=O)c2ccc3[nH]ncc3c2)CCCN1 (stereo not drawn)
Papp B→A [1]: 20 ×10⁻⁶ cm/s
logD [2]: 1
Papp A→B [3]: 32 ×10⁻⁶ cm/s

CC(C)(C)CCC1(C(=O)c2ccc3[nH]ncc3c2)CCCN1 (stereo not drawn)
Papp B→A [1]: 12 ×10⁻⁶ cm/s
logD [2]: 2.03
Papp A→B [3]: 20 ×10⁻⁶ cm/s

CCCC1(C(=O)c2ccc3[nH]ccc3c2)CCCN1 (stereo not drawn)
Papp B→A [1]: 10 ×10⁻⁶ cm/s
logD [2]: 1.45
Papp A→B [3]: 41 ×10⁻⁶ cm/s

O=C(c1ccc2[nH]ccc2c1)C1(Cc2ccccc2)CCNC1 (stereo not drawn)
Papp B→A [1]: 19 ×10⁻⁶ cm/s
Papp A→B [3]: 17 ×10⁻⁶ cm/s

CC(C)OCC1(C(=O)c2ccc(N)c(Cl)c2)CCCN1 (single isomer, unassigned; (+))
Papp B→A [1]: 18 ×10⁻⁶ cm/s
logD [2]: 0.84
Papp A→B [3]: 30 ×10⁻⁶ cm/s

CC(C)(C)CCC1(C(=O)c2cc(F)c3[nH]ccc3c2)CCNC1 (single isomer, unassigned; (+))
Vd [4]: 14 L/kg
bioavailability [5]: 5%

CC(C)(C)CCC1(C(=O)c2ccc(Cl)c(Cl)c2)CCNC1 (single isomer, unassigned; (+))
Vd [4]: 14.3 L/kg
bioavailability [5]: 57%

CNCC[C@H](Oc1cccc2ccccc12)c1cccs1 [DULOXETINE]
Vd [4]: 20.9 L/kg
bioavailability [5]: 22%
